In patent US12187723B2 (BRISTOL-MYERS SQUIBB COMPANY, priority 2019, dated 2025):

Assays:
human TLR7 = biological target: T1, human TLR7 (Homo sapiens, UniProt Q9NYK1); test: TLR7 inhibition reporter assay (HEK-Blue SEAP); assay type: cell-based; details: HEK-Blue cells overexpressing human TLR7, gardiquimod 7.5 μM, 22 hour incubation
T1 construct: host or cells: HEK-Blue cells
T1 sequence (Q9NYK1 27-1049): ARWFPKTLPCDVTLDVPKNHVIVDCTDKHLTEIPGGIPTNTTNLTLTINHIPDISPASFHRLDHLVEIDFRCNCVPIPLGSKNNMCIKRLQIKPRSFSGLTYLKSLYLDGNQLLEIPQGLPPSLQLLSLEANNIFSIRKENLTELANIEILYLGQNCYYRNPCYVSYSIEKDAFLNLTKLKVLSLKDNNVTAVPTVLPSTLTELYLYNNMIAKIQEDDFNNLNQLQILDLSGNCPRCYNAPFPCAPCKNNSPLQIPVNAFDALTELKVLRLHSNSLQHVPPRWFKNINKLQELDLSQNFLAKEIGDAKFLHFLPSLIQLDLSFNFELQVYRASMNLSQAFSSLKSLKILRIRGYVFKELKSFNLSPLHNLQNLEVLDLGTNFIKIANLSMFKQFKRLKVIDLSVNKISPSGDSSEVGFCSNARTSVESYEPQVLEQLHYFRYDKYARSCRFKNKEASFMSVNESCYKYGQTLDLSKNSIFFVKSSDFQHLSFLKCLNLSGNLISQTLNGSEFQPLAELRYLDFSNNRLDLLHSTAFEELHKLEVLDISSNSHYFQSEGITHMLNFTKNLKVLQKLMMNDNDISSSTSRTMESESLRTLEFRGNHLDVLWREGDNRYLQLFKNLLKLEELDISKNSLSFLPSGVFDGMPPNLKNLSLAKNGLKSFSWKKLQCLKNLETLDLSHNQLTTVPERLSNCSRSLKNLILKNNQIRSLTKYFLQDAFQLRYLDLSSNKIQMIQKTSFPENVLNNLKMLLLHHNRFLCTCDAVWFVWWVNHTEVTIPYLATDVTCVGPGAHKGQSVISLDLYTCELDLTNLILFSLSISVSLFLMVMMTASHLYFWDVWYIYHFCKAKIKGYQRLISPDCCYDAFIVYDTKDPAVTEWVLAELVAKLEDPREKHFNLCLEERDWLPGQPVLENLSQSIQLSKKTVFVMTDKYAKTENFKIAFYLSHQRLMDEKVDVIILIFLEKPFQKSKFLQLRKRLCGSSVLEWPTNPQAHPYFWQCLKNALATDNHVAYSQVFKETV
How it was run: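 In this cell reporter format, test compounds at 0.05 nM-50 μM final incubate 22 h with seeded cells (TLR7 15000, TLR8 20,000 per well). SEAP read-out by HEK-Blue Detection medium yields % inhibition relative to agonist/DMSO and known-inhibitor wells.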

human TLR8 = biological target: T2, human TLR8 (Homo sapiens, UniProt Q9NR97); test: TLR8 inhibition reporter assay (HEK-Blue SEAP); assay type: cell-based; details: HEK-Blue cells overexpressing human TLR8, R848 15.9 μM, 22 hour incubation
T2 construct: host or cells: HEK-Blue cells
T2 sequence (Q9NR97 27-1041): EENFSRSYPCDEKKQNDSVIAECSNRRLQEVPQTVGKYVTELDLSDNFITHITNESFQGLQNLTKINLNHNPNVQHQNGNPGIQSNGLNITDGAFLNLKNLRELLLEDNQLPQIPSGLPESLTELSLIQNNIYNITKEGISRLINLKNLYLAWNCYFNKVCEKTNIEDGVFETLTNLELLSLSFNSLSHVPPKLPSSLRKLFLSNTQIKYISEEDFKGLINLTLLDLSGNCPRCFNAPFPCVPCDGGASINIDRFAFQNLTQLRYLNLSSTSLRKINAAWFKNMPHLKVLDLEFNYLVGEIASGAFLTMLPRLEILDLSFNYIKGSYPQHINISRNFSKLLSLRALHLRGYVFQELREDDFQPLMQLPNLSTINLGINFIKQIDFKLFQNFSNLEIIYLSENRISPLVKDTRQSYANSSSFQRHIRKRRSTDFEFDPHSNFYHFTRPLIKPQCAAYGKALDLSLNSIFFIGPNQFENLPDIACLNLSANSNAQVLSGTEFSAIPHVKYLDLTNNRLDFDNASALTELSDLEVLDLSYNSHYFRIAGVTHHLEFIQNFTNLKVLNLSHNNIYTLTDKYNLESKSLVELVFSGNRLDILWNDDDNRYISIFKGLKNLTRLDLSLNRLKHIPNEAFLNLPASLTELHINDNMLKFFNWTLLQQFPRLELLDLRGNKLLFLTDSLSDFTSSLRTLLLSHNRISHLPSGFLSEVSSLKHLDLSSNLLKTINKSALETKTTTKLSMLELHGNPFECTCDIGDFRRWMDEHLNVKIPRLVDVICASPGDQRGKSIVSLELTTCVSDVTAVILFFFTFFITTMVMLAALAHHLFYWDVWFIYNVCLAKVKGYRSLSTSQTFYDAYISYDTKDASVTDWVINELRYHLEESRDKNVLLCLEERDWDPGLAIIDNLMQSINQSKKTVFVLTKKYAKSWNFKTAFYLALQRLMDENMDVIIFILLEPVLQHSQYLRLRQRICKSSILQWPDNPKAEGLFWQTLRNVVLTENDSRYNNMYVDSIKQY
How it was run: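 Dose–response from 0.05 nM to 50 μM was run in HEK-Blue human TLR7, TLR8 and TLR9 reporter cells. After 30 min at room temperature with compound, ligand was added (TLR7 gardiquimod 7.5 μM; TLR8 R848 15.9 μM; TLR9 ODN2006 5 nM) and SEAP measured next day, at 22 h.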

`CCCN1CCC[C@@H](n2c(=O)[nH]c3cc(-c4cc(OC)c5ncnn5c4)c(CC)cc32)C1` [Example 179, (R)-6-ethyl-5-(8-methoxy-[1,2,4]triazolo[1,5-a]pyridin-6-yl)-1-(1-propylpiperidin-3-yl)-1,3-dihydro-2H-benzo[d]imidazol-2-one] showed an IC50 (human TLR7) of 1.06 nM and an IC50 (human TLR8) of 2.48 nM.

Molecule `COc1cc(-c2cc3[nH]c(=O)n(C4CCC(N5CC(O)(C(F)(F)F)C5)CC4)c3cc2C(C)C)cn2ncnc12` (single isomer, unassigned) [Example 241, 1-(4-(3-hydroxy-3-(trifluoromethyl)azetidin-1-yl)cyclohexyl)-6-isopropyl-5-(8-methoxy-[1,2,4]triazolo[1,5-a]pyridin-6-yl)-1,3-dihydro-2H-benzo[d]imidazol-2-one] has an IC50 (human TLR7) of 3.01 nM and an IC50 (human TLR8) of 0.49 nM.

With `COc1cc(-c2cc3[nH]c(=O)n([C@H]4CC[C@@H](NCC5CCOCC5)CC4)c3cc2C(C)C)cn2ncnc12` [Example 196, 6-isopropyl-5-(8-methoxy-[1,2,4]triazolo[1,5-a]pyridin-6-yl)-1-((1s,4s)-4-(((tetrahydro-2H-pyran-4-yl)methyl)amino)cyclohexyl)-1,3-dihydro-2H-benzo[d]imidazol-2-one] the IC50 (human TLR7) was 4.1 nM and the IC50 (human TLR8) was 0.05 nM.

Work on `CCc1cc2c(cc1-c1cc(OC)c3ncnn3c1)[nH]c(=O)n2[C@@H]1CCCN(C2COC2)C1` [Example 173, (R)-6-ethyl-5-(8-methoxy-[1,2,4]triazolo[1,5-a]pyridin-6-yl)-1-(1-(oxetan-3-yl)piperidin-3-yl)-1,3-dihydro-2H-benzo[d]imidazol-2-one] yielded an IC50 (human TLR7) of 32 nM and an IC50 (human TLR8) of 18 nM.

In the case of `CCc1cc2c(cc1-c1cc(OC)c3ncnn3c1)[nH]c(=O)n2[C@@H]1CCCN(CC2CCC2)C1` [Example 181, (R)-1-(1-(cyclobutylmethyl)piperidin-3-yl)-6-ethyl-5-(8-methoxy-[1,2,4]triazolo[1,5-a]pyridin-6-yl)-1,3-dihydro-2H-benzo[d]imidazol-2-one], the IC50 (human TLR7) is reported as 0.81 nM and the IC50 (human TLR8) is reported as 1.68 nM.

`COc1cc(-c2cc3[nH]c(=O)n([C@H]4CC[C@@H](NC(C)C)CC4)c3cc2C(C)C)cn2ncnc12` [Example 192, 6-isopropyl-1-((1s,4s)-4-(isopropylamino)cyclohexyl)-5-(8-methoxy-[1,2,4]triazolo[1,5-a]pyridin-6-yl)-1,3-dihydro-2H-benzo[d]imidazol-2-one] gave an IC50 (human TLR7) of 1.97 nM and an IC50 (human TLR8) of 0.44 nM.

In the case of `CCc1cc2c(cc1-c1cc(OC)c3ncnn3c1)[nH]c(=O)n2[C@@H]1CCCN(C2CCOCC2)C1` [Example 184, (R)-6-ethyl-5-(8-methoxy-[1,2,4]triazolo[1,5-a]pyridin-6-yl)-1-(1-(tetrahydro-2H-pyran-4-yl)piperidin-3-yl)-1,3-dihydro-2H-benzo[d]imidazol-2-one], the IC50 (human TLR7) is reported as 12.1 nM and the IC50 (human TLR8) is reported as 14.3 nM.

`CCc1cc2c(cc1-c1cc(OC)c3ncnn3c1)[nH]c(=O)n2[C@@H]1CCCN(CC(C)(C)C)C1` [Example 180, (R)-6-ethyl-5-(8-methoxy-[1,2,4]triazolo[1,5-a]pyridin-6-yl)-1-(1-neopentylpiperidin-3-yl)-1,3-dihydro-2H-benzo[d]imidazol-2-one] was tested, and the IC50 (human TLR7) was 1.42 nM and the IC50 (human TLR8) was 4.29 nM.

For `COc1cc(-c2cc3[nH]c(=O)n(C4CCC(N5CC(OC)C5)CC4)c3cc2C(C)C)cn2ncnc12` (centres unmarked) [Example 237, 6-isopropyl-5-(8-methoxy-[1,2,4]triazolo[1,5-a]pyridin-6-yl)-1-(4-(3-methoxyazetidin-1-yl)cyclohexyl)-1,3-dihydro-2H-benzo[d]imidazol-2-one], the IC50 (human TLR7) was 1.31 nM and the IC50 (human TLR8) was 0.33 nM.

Work on `COCCN1CCC(n2c(=O)[nH]c3cc(-c4cc(OC)c5ncnn5c4)c(C(C)C)cc32)CC1` [Example 223, 6-isopropyl-5-(8-methoxy-[1,2,4]triazolo[1,5-a]pyridin-6-yl)-1-(1-(2-methoxyethyl)piperidin-4-yl)-1,3-dihydro-2H-benzo[d]imidazol-2-one] yielded an IC50 (human TLR7) of 16.9 nM and an IC50 (human TLR8) of 9.01 nM.

For `Cc1cc2c(cc1-c1cc(C)c3ncnn3c1)[nH]c(=O)n2[C@H]1CCCN(C(C)C)C1` [Example 13, (S)-1-(1-isopropylpiperidin-3-yl)-6-methyl-5-(8-methyl-[1,2,4]triazolo[1,5-a]pyridin-6-yl)-1,3-dihydro-2H-benzo[d]imidazol-2-one], the IC50 (human TLR7) was 124 nM and the IC50 (human TLR8) was 62.9 nM.

`CCc1cc2c(cc1-c1cc(OC)c3ncnn3c1)[nH]c(=O)n2[C@H]1CC[C@@H](NC2COC2)CC1` [Example 170, 6-ethyl-5-(8-methoxy-[1,2,4]triazolo[1,5-a]pyridin-6-yl)-1-((1s,4s)-4-(oxetan-3-ylamino)cyclohexyl)-1,3-dihydro-2H-benzo[d]imidazol-2-one] was tested, and the IC50 (human TLR7) was 6.25 nM and the IC50 (human TLR8) was 1.27 nM.

`COc1cc(-c2cc3[nH]c(=O)n([C@H]4CC[C@@H](NCC(C)(C)C)CC4)c3cc2C(C)C)cn2ncnc12` [Example 197, 6-isopropyl-5-(8-methoxy-[1,2,4]triazolo[1,5-a]pyridin-6-yl)-1-((1s,4s)-4-(neopentylamino)cyclohexyl)-1,3-dihydro-2H-benzo[d]imidazol-2-one] gave an IC50 (human TLR7) of 0.8 nM and an IC50 (human TLR8) of 0.04 nM.

`CCc1cc2c(cc1-c1cc(OC)c3ncnn3c1)[nH]c(=O)n2[C@@H]1CCCN(CC2CCOCC2)C1` [Example 175, (R)-6-ethyl-5-(8-methoxy-[1,2,4]triazolo[1,5-a]pyridin-6-yl)-1-(1-((tetrahydro-2H-pyran-4-yl)methyl)piperidin-3-yl)-1,3-dihydro-2H-benzo[d]imidazol-2-one] showed an IC50 (human TLR7) of 0.83 nM and an IC50 (human TLR8) of 2.23 nM.

For `COc1cc(-c2cc3[nH]c(=O)n(C4CCC(N5CCCC5)CC4)c3cc2C(C)C)cn2ncnc12` (centres unmarked) [Example 232, 6-isopropyl-5-(8-methoxy-[1,2,4]triazolo[1,5-a]pyridin-6-yl)-1-(4-(pyrrolidin-1-yl)cyclohexyl)-1,3-dihydro-2H-benzo[d]imidazol-2-one], the IC50 (human TLR7) was 1.4 nM and the IC50 (human TLR8) was 0.44 nM.

With `CCc1cc2c(cc1-c1cc(OC)c3ncnn3c1)[nH]c(=O)n2[C@@H]1CCCN(CCOC)C1` [Example 227, (R)-6-ethyl-5-(8-methoxy-[1,2,4]triazolo[1,5-a]pyridin-6-yl)-1-(1-(2-methoxyethyl)piperidin-3-yl)-1,3-dihydro-2H-benzo[d]imidazol-2-one] the IC50 (human TLR7) was 2.86 nM and the IC50 (human TLR8) was 4.42 nM.
